Assay results as given in ChEMBL document CHEMBL1201862, “PubChem BioAssay data set” (2004).
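Step 1: Grow cells in 96-well plates. Step 2: Expose to compound for 48 hours at 5 concentrations. Step 3: Interpolate endpoints linearly; if unreached, use highest concentration. Here, GI50 denotes the concentration required for 50% inhibition of growth.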 The source made the active and inactive calls. No stated cut-off is given here; in the data, active = GI50 up to about 1.1 µM and inactive = higher.

Legend:
Assay in all cases: inhibition of tumour cell growth, NCI panel, 48 h
[1] = system: HOP-62
[2] = system: OVCAR-8
[3] = system: TK-10
[4] = system: HCT-15
[5] = system: NCI-H23
[6] = system: U-251
[7] = system: MDA-MB-435
[8] = system: COLO 205
[9] = system: PC-3
[10] = system: HT-29
[11] = system: NCI-H522
[12] = system: RPMI-8226
[13] = system: SNB-75
[14] = system: 786-0
[15] = system: IGROV-1
[16] = system: SK-MEL-2
[17] = system: Hs-578T
[18] = system: HCC 2998
[19] = system: CCRF-CEM

Row | SMILES | GI50 [1] | GI50 [2] | GI50 [3] | GI50 [4] | GI50 [5] | GI50 [6] | GI50 [7] | GI50 [8] | GI50 [9] | GI50 [10] | GI50 [11] | GI50 [12] | GI50 [13] | GI50 [14] | GI50 [15] | GI50 [16] | GI50 [17] | GI50 [18] | GI50 [19]
1 | O=C(O)c1ccccc1-c1ccccc1C(=O)Nc1ccc2c(c1)Cc1cc(F)ccc1-2 | 24.9 µM (inactive) | 35.2 µM (inactive) | 28.9 µM (inactive) | 17.6 µM | 17.9 µM (inactive) | 21.3 µM (inactive) | 32.5 µM (inactive) | 17.4 µM (inactive) | 26.4 µM (inactive) | 22.8 µM (inactive) | 24.3 µM (inactive) | 31.5 µM (inactive) | 26.6 µM (inactive) | 24.3 µM (inactive) | 34 µM (inactive) | 18.8 µM (inactive) | 54.8 µM (inactive) | 16.3 µM (inactive) | 
2 | Cc1cccc(/C=N/NC(=S)N(C)CCc2ccccn2)n1 | 0.32 µM (active) | 0.336 µM (active) | 15.2 µM (inactive) | 0.196 µM | 0.467 µM (active) | 0.347 µM (active) | 0.521 µM (active) | 0.183 µM (active) | 0.288 µM (active) | 0.265 µM (active) | 0.214 µM (active) | 0.104 µM (active) | 0.483 µM (active) | 0.281 µM (active) | 0.366 µM (active) | 0.661 µM (active) | > 33 µM (inactive) | 0.453 µM (active) | 0.0288 µM (active)
3 | COc1cc(C2C(C#N)=C(N)OC3=C2CCS(=O)(=O)c2ccc(C)cc23)cc(OC)c1OC (configuration not stated) | > 100 µM (inactive) | > 100 µM (inactive) | > 100 µM (inactive) | > 100 µM | > 100 µM (inactive) | > 100 µM (inactive) | > 100 µM (inactive) | > 100 µM (inactive) | > 100 µM (inactive) | > 100 µM (inactive) | > 100 µM (inactive) | > 100 µM (inactive) | > 100 µM (inactive) | > 100 µM (inactive) | > 100 µM (inactive) | > 100 µM (inactive) | > 100 µM (inactive) | > 100 µM (inactive) | > 100 µM (inactive)
4 | COc1c(C(=O)CC2c3c(cc4oc(C)cc(=O)c4c3OC)OC(=N)C2c2nc3ccccc3[nH]2)c(O)c(OC)c2occc12 (configuration not stated) | > 100 µM (inactive) | > 100 µM (inactive) | > 100 µM (inactive) | > 100 µM | > 100 µM (inactive) | > 100 µM (inactive) | > 100 µM (inactive) | > 100 µM (inactive) | > 100 µM (inactive) | > 100 µM (inactive) | > 100 µM (inactive) | > 100 µM (inactive) | > 100 µM (inactive) | > 100 µM (inactive) | > 100 µM (inactive) | > 100 µM (inactive) | > 100 µM (inactive) | > 100 µM (inactive) | > 100 µM (inactive)
5 | Nc1nc2cc(Cl)ccc2n1N | 87.1 µM (inactive) | > 100 µM (inactive) | > 100 µM (inactive) | > 100 µM | > 100 µM (inactive) | > 100 µM (inactive) | > 100 µM (inactive) | > 100 µM (inactive) | > 100 µM (inactive) | > 100 µM (inactive) | > 100 µM (inactive) | > 100 µM (inactive) | > 100 µM (inactive) | > 100 µM (inactive) | > 100 µM (inactive) |  | > 100 µM (inactive) | > 100 µM (inactive) | > 100 µM (inactive)
6 | CC1C(c2ccc(Cl)cc2)c2cc3c(cc2OC1N1CCOCC1)OCO3 (configuration not stated) | 79.4 µM (inactive) | > 100 µM (inactive) | > 100 µM (inactive) | > 100 µM | > 100 µM (inactive) |  | 95.1 µM (inactive) | > 100 µM (inactive) | 67.3 µM (inactive) | 49.5 µM (inactive) | 46.3 µM (inactive) | 34.1 µM (inactive) | 44.1 µM (inactive) | 56.8 µM (inactive) | > 100 µM (inactive) | 69.7 µM (inactive) | 23.9 µM (inactive) | > 100 µM (inactive) | 92.9 µM (inactive)
7 | Cn1c(S)nc2c(Cl)cc(Cl)cc2c1=O | > 100 µM (inactive) | > 100 µM (inactive) | > 100 µM (inactive) | > 100 µM | > 100 µM (inactive) | > 100 µM (inactive) | > 100 µM (inactive) | > 100 µM (inactive) | > 100 µM (inactive) |  | 44.1 µM (inactive) |  | 55.3 µM (inactive) | > 100 µM (inactive) | 80.5 µM (inactive) | > 100 µM (inactive) | > 100 µM (inactive) | > 100 µM (inactive) | 24.8 µM (inactive)
8 | OCCOCCN1CCN(c2nc(N3CCCC3)c3nc(Cl)c(NCc4ccccc4)nc3n2)CC1 | 12.6 µM (inactive) | 17.4 µM (inactive) | 12.4 µM (inactive) | 4.27 µM | 16.3 µM (inactive) | 12 µM (inactive) | 11.7 µM (inactive) | 7.35 µM (inactive) | 13.9 µM (inactive) | 3.92 µM (inactive) | 15.4 µM (inactive) | 7.64 µM (inactive) | 21 µM (inactive) | 13 µM (inactive) | 18.3 µM (inactive) | 17.5 µM (inactive) | 17.7 µM (inactive) | 4.29 µM (inactive) | 12.7 µM (inactive)
